The values below come from ChEMBL document CHEMBL1806351, “Synthesis of C-1 homologues of pancratistatin and their preliminary biological evaluation” (Bioorg Med Chem Lett, 2011).

Common to all, as to assay type: functional, cell-based
One assay concerns BXPC-3. Briefly: Antiproliferative activity against human BxPC3 cells assessed as viable cells after 48 hrs by MTT assay. As to conditions: BXPC-3, 48 h. (Tetrazolium assays rely on reduction of a dye to a coloured formazan, in cell work by metabolically active cells.)
The subject of a further assay is DU-145. In words: Antiproliferative activity against human DU145 cells assessed as viable cells after 48 hrs by MTT assay. Particulars: DU-145, 48 h.
For the next assay, the system named is NCI-H460. Briefly: Antiproliferative activity against human NCI-H460 cells assessed as viable cells after 48 hrs by MTT assay. As to conditions: NCI-H460, 48 h.
For a further assay, the system named is MCF7. Briefly: Antiproliferative activity against human MCF7 cells assessed as viable cells after 48 hrs by MTT assay. Particulars: MCF7, 48 h.

pIC50: −log10 of the molar value.

With `CC(=O)OC[C@H]1[C@H](O)[C@@H](O)[C@@H](O)[C@@H]2NC(=O)c3c(cc4c(c3O)OCO4)[C@@H]12`, the pIC50 (usually the IC50 on a negative log10 scale, so that one unit is a factor of ten) in the assay on BXPC-3 is 7.15; with DU-145, 7.22; with NCI-H460, 7.15; in the assay on MCF7 it was 6.28.

As to `CC(=O)OC[C@H]1[C@H](O)[C@@H](O)[C@@H](O)[C@@H]2NC(=O)c3cc4c(cc3[C@@H]12)OCO4`, the pIC50 in the assay on BXPC-3 is 6.47; with DU-145, 6.14; in the assay with NCI-H460 it was 6.28; with MCF7, 5.74.

`O=C1N[C@H]2[C@H](O)[C@H](O)[C@@H](O)[C@H](CO)[C@@H]2c2cc3c(cc21)OCO3`: the negative-log IC50 (pIC50) is 6.11 with BXPC-3, 5.96 with DU-145, 6.40 with NCI-H460 and 6.07 with MCF7.

As to `O=C1N[C@H]2[C@H](O)[C@H](O)[C@@H](O)[C@H](CO)[C@@H]2c2cc3c(c(O)c21)OCO3`, the negative-log IC50 (pIC50) was 6.66 in the assay on BXPC-3, 7.05 with DU-145, 7.05 in the assay with NCI-H460 and 6.62 in the assay on MCF7.

Regarding `O=C1N[C@@H]2C(=C[C@H](O)[C@@H](O)[C@H]2O)c2cc3c(c(O)c21)OCO3` [NARCICLASINE], the negative logarithm of the IC50 (pIC50) in the assay with BXPC-3 was 7.30; in the assay with DU-145, 7.30; with NCI-H460, 7.40; in the assay with MCF7, 7.40.
